These results are taken from US11684682B2, “Chelating AAZTA conjugates and complexes thereof” (BRACCO IMAGING S.P.A., priority 2018, dated 2023).

The conditions of series [1]: 0.15 M NaCl, 25° C.; cited from earlier work.
A short description of series [2]: Equilibrium study of Bi(AAZTA): competition of AAZTA with NTA for Bi^3+ by UV-spectrophotometry. Conditions: 0.15 M NaClO4. It is filed as physicochemical. How it is done:
The stability constant of Bi(AAZTA) was determined by following the competition reaction of AAZTA with NTA for Bi^3+ (Eq. (10)) with UV-spectrophotometry in the wavelength range of 210-350 nm. The concentration of Bi^3+ and NTA was 30.2 μM and 10 mM while that of the AAZTA was varied between 0 and 50 μM (6×2 mL samples with the addition of AAZTA to the pre-prepared Bi(NTA)2 complex) in 0.15 M NaClO4 solution. The pH was adjusted to pH=7.4 by stepwise addition of concentrated NaOH or HClO4. The samples were kept at 50° C. for a week and at 25° C. for two weeks in order to attain the equilibrium (the time needed to reach the equilibria was determined by spectrophotometry). The spectrophotometric measurements were made with the use of PerkinElmer Lambda 365 UV-Vis spectrophotometer at 25° C., using 1.0 cm cells. For the equilibrium calculation, the protonation constants of AAZTA and NTA ligands (AAZTA: log K1^H=10.29, log K2^H=6.51, log K3^H=3.86, log K4^H=1.94, log K5^H=1.00; NTA: log K1^H=9.22, log K2^H=2.98, log K3^H=1.06; 25° C., 0.15 M NaClO4) and the stability constants of Bi(NTA) and Bi(NTA)2 complexes (log KBi(NTA)=16.97, log βBi(NTA)2=26.21, 25° C., 0.15 M NaClO4) have been determined as it is described in the literature (Baranyai, Eur. J. Inorg. Chem., 2013, 147-162, KARADAKOV, Talanta, 1970, 17, 883-887). The equilibrium constants were calculated with the program PSEQUAD (L. Zekany and I. Nagypal in PSEQUAD, Vol. (Ed. D. Leggett), Springer US, 1985, pp. 291-353). Bi(NTA)2+HxAAZTA ? Bi(AAZTA)+2HyNTA (10) Thermodynamic stability constant of Bi(AAZTA) calculated from the UV-spectrophotometric studies of Bi^3+-NTA-AAZTA systems is log KBi(AAZTA)=26.45 (6) at 25° C. in 0.15 M NaClO4. By taking into account the protonation constant of AAZTA ligand (log K1^H=10.29, log K2^H=6.51, log K3^H=3.86, log K4^H=1.94, log K5^H=1.00, 25° C., 0.15 M NaClO4) and the stability constant of Bi(AAZTA) (log KBi(AAZTA)=26.45, 25° C. in 0.15 M NaClO4), the conditional stability constant of Bi(AAZTA) was calculated to be log K^condBi(AAZTA)=log KBi(AAZTA)/(1+αH)=23.5 at pH=7.4 and 25° C. in 0.15 M NaClO4 (αH=K1^H[H^+]+K1^HK2^H[H^+]^2+ . . . +K1^HK2^H . . . Kn^H[H^+]^n and K1^H, K2^H, . . . Kn^H are the protonation constant of the free ligand at pH=7.4 in 0.15 M NaClO4 solution).

Series [3] can be described thus: Transchelation reaction between Bi(AAZTA) and DTPA by UV-spectrophotometry. It counts as physicochemical. Conditions: pH=9.0, 25° C., 0.15 M NaClO4. How it is done: The kinertic properties of Bi(AAZTA) was determined by following the transchelation reaction between Bi(AAZTA) and DTPA with UV-spectrophotometry at 278 nm and 25° C. in 0.15 M NaClO4 solution (stability constant of Bi(DTPA) is log KBi(DTPA)=29.3 at 25° C. in 0.6 M NaClO4, V. Kornev, A. Troubachev, Russ. J. Inorg. Chem, 1987, 32, 1419). In these experiments the concentration of Bi(AAZTA) was 0.1 mM while DTPA was applied in 10 and 20 fold excess to ensure the occurrence of pseudo-first order conditions. The pH was adjusted to 8.5, 9.0, 9.5, 10.0, 10.5 and 11.0 by stepwise addition of concentrated NaOH or HClO4. For keeping the pH values constant 0.01 M N-methyl-piperazine (pH≤10) buffers were used. At pH>10, buffer was not used to keep the constant pH due to the presence of OH^− in a high concentration. The pseudo-first-order rate constants (kd) were calculated by fitting the absorbance—time data sets for Bi(AAZTA)—DTPA system to Eq. (9). The dissociation rates (kd) of Bi(AAZTA) complex is independent from the [DTPA] and increase with the increase of pH.

Series [4] is classed as physicochemical. Conditions: 25° C., 0.15 M NaCl. The source says: The thermodynamic properties of Sc(AAZTA-TATE) complex were characterized by the conditional stability constant (log K^cond=log K^therm/(1+αH) where αH=K1^H[H^+]+K1^HK2^H[H^+]^2+ . . . +K1^HK2^H . . . Kn^H[H^+]^n and K1^H, K2^H, . . . Kn^H are the protonation constant of the free ligand) at pH=7.4 in 0.15 M NaCl solution. To determine the log K^cond value of Sc(AAZTA-TATE) complex, the competition reaction of AAZTA-TATE with NTA for Sc^3+ have been studied by ^45Sc NMR spectroscopy (Bruker Avance III 400 spectrometer at 9.4 T) with the integral of Sc(NTA)2 complex (δSc=59.9 ppm) formed in the reactions (Eq. (4), H3NTA=nitrilo-triacetic acid, pH=7.4, 25° C., 0.15 M NaCl).
[formula] For the equilibrium characterization of Sc(AAZTA-TATE), 7 samples were prepared in which the concentration of Sc^3+ and AAZTA-TATE was 203.3 μM and 206.2 μM, while that of the NTA was varied between 0.0 and 20.06 mM (7×1 mL samples were prepared by the addition of AAZTA-TATE to the pre-prepared Sc(NTA)2 complex) in 0.15 M NaCl solution. […] The samples were kept at 25° C. for 8 weeks in order to attain the equilibrium (the time needed to reach the equilibria was determined by ^45Sc NMR spectroscopy).
To compare the equilibrium properties of Sc(AAZTA-TATE) with that of Sc(AAZTA), the conditional stability constant of Sc(AAZTA) was determined by following the competition reaction of AAZTA with NTA for Sc^3+ with ^45Sc NMR spectroscopy by using the integral of Sc(NTA)2 complex (δSc=59.9 ppm) formed in the reactions (Eq. (5), pH=7.4, 25° C., 0.15 M NaCl).
For the equilibrium characterization of Sc(AAZTA), 7 samples were prepared in which the concentration of Sc^3+ and AAZTA was 203.3 μM and 207.1 μM, while that of the NTA was varied between 0 and 20.06 mM (7×2 mL samples with the addition of AAZTA to the pre-prepared […] complex) in 0.15 M NaCl solution. […] The samples were kept at 25° C. for 8 weeks in order to attain the equilibrium (the time needed to reach the equilibria was determined by ^45Sc NMR spectroscopy). […]

Read-outs that look alike come from different tables or passages of the source.

As to `CC1(N(CC(=O)O)CC(=O)O)CN(CC(=O)O)CCN(CC(=O)O)C1` [AAZTA, 6-amino-6-methylperhydro-1,4-diazepinetetraacetic acid], in series [1], the “log K1^H (protonation constant)” value was 9.98, the “log K2^H (protonation constant)” value was 6.52, the “log K3^H (protonation constant)” value is given as 3.76 and the “log K4^H (protonation constant)” value is recorded as 2.21. Also, in series [2] (25° C.), the “log K1^H (protonation constant)” value stood at 10.29, the “log K2^H (protonation constant)” value amounted to 6.51, the “log K3^H (protonation constant)” value is recorded as 3.86 and the “log K4^H (protonation constant)” value is given as 1.94. Also, in series [2] (25° C.), the “log K5^H (protonation constant)” value is given as 1.00.

Regarding `CC1(N(CC(=O)[O-])CC(=O)[O-])CN(CC(=O)[O-])CCN(CC(=O)[O-])C1.[Bi+3]` [Bi(AAZTA)], the “kd (rate constant of dissociation)” value in series [3] came to 1.67e-06 s⁻¹. Moreover, the “log KBi(AAZTA) (thermodynamic stability constant)” value in series [2] (25° C.) is 26.45 (6). Besides, the “log K^cond (conditional stability constant)” value in series [2] (pH=7.4, 25° C.) was found to be 23.5.

With `O=C(O)CN(CC(=O)O)CC(=O)O` [NTA, nitrilo-triacetic acid, reference compound], in series [4], the “log K1^H (protonation constant)” value is listed as 9.13 (1), the “log K2^H (protonation constant)” value is listed as 2.63 (2) and the “log K3^H (protonation constant)” value is on record as 1.64 (3). Besides, in series [2] (NTA ligand, 25° C.), the “log K1^H (protonation constant)” value was 9.22, the “log K2^H (protonation constant)” value stood at 2.98 and the “log K3^H (protonation constant)” value was found to be 1.06.
